Reference: ChEMBL document CHEMBL1681685, “A novel class of dual mPGES-1/5-LO inhibitors based on the α-naphthyl pirinixic acid scaffold” (Bioorg Med Chem Lett, 2011)
Calls of active or inactive are those of the source. No cut-off for these calls is given here.

Experiments:
Prostaglandin E synthase = biological target: T1, Prostaglandin E synthase (Homo sapiens, UniProt O14684); test: Inhibition of mPGES-1 expressed in […]-stimulated human A549 cells mitochondrial fraction assessed as conversion of PGH2 to PGE2; format: cell-based
T1 sequence (O14684 whole entry): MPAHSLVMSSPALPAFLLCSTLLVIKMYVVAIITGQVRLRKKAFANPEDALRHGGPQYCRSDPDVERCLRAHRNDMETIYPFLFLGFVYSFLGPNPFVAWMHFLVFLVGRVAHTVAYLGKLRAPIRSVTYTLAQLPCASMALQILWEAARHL

[1] = biological target: T2, Polyunsaturated fatty acid 5-lipoxygenase (Homo sapiens, UniProt P09917); test: Inhibition of human recombinant 5-lipoxygenase
T2 sequence (P09917 whole entry): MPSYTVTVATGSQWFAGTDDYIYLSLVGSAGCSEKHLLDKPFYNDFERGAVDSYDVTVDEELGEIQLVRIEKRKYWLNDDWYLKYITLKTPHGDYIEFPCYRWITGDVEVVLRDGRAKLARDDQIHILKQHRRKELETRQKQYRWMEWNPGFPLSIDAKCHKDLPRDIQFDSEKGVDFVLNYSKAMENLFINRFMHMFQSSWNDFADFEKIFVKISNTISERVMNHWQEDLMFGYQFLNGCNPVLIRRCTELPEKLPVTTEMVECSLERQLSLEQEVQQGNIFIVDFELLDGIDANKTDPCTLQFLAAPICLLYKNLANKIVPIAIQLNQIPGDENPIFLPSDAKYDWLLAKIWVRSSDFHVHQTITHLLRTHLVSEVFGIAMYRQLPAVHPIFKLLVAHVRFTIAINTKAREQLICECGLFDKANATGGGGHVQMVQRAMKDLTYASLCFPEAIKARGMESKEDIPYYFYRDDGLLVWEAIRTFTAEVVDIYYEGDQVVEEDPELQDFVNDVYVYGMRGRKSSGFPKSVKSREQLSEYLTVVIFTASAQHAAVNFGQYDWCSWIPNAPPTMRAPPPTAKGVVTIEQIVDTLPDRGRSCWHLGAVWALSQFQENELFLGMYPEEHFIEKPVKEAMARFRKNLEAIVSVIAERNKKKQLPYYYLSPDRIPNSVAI

[2] = biological target: T2, Polyunsaturated fatty acid 5-lipoxygenase; test: Inhibition of 5-lipoxygenase in human PMNL
[3] = biological target: T3, Prostaglandin E synthase (Homo sapiens) (UniProt O14684); test: Inhibition of mPGES-1 expressed in IL-1beta-stimulated human A549 cells mitochondrial fraction assessed as remaining activity at 10 uM
T3 sequence (whole entry): T1 sequence (O14684 whole entry)

[4] = biological target: T4, Polyunsaturated fatty acid 5-lipoxygenase (Homo sapiens) (UniProt P09917); test: Inhibition of human recombinant 5-lipoxygenase assessed as remaining activity at 10 uM
T4 sequence (whole entry): T2 sequence (P09917 whole entry)

[5] = biological target: T4, Polyunsaturated fatty acid 5-lipoxygenase (Homo sapiens); test: Inhibition of 5-lipoxygenase in human PMNL assessed as remaining activity at 10 uM
[6] = biological target: T3, Prostaglandin E synthase (Homo sapiens); test: Inhibition of mPGES-1 expressed in […]-stimulated human A549 cells mitochondrial fraction assessed as remaining activity at 10 uM; format: cell-based

IC50 (Prostaglandin E synthase)	IC50 [1]	IC50 [2]	Activity [3]	Activity [4]	Activity [5]	Activity [6]	Compound
5.7 µM	8.5 µM	0.7 µM	–	–	–	–	Cc1ccc(Nc2cc(Cl)nc(SC(C(=O)O)c3cccc4ccccc34)n2)cc1C (centres undefined)
1.45 µM	2 µM	0.4 µM	–	–	–	–	O=C(O)C(Sc1nc(Cl)cc(Nc2ccc(C3CCCCC3)cc2)n1)c1cccc2ccccc12 (centres undefined)
–	–	2.4 µM	90.2%	70.6%	–	–	CCCCNc1cc(Cl)nc(SC(C(=O)O)c2cccc3ccccc23)n1 (centres undefined)
1.5 µM	2.2 µM	0.3 µM	–	–	–	–	O=C(O)C(Sc1nc(Cl)cc(Nc2ccc(Cc3ccccc3)cc2)n1)c1cccc2ccccc12 (centres undefined)
–	5 µM	0.7 µM	45.5%	–	–	–	O=C(O)C(Sc1nc(Cl)cc(Nc2cccc(Cl)c2)n1)c1cccc2ccccc12 (centres undefined)
–	–	2.5 µM	42.3%	44.2%	–	–	O=C(O)C(Sc1nc(Cl)cc(NCCc2ccccc2)n1)c1cccc2ccccc12 (centres undefined)
0.94 µM	2.3 µM	0.1 µM	–	–	–	–	O=C(O)C(Sc1nc(Cl)cc(Nc2ccc(-c3ccccc3)cc2)n1)c1cccc2ccccc12 (centres undefined)
–	4.2 µM	0.5 µM	36.7%	–	–	–	O=C(O)C(Sc1nc(Cl)cc(Nc2ccc3c(c2)CCC3)n1)c1cccc2ccccc12 (centres undefined)
5.1 µM	8.9 µM	0.8 µM	–	–	–	–	O=C(O)C(Sc1nc(Cl)cc(Nc2ccc(Cl)cc2)n1)c1cccc2ccccc12 (centres undefined)
–	–	–	inactive	inactive	inactive	–	Cc1cccc(Nc2cc(Cl)nc(SCC(=O)O)n2)c1C
–	–	2.5 µM	–	54.8%	–	65.3%	CC(C)CNc1cc(Cl)nc(SC(C(=O)O)c2cccc3ccccc23)n1 (centres undefined)
1.9 µM	5 µM	0.5 µM	–	–	–	–	O=C(O)C(Sc1nc(Cl)cc(Nc2cccc(-c3ccccc3)c2)n1)c1cccc2ccccc12 (centres undefined)
0.88 µM	3 µM	0.7 µM	–	–	–	–	O=C(O)C(Sc1nc(Cl)cc(NCc2ccc(-c3ccccc3)cc2)n1)c1cccc2ccccc12 (centres undefined)
0.9 µM	1.9 µM	0.26 µM	–	–	–	–	CC(C)(C)c1cc(Nc2cc(Cl)nc(SC(C(=O)O)c3cccc4ccccc34)n2)cc(C(C)(C)C)c1 (centres undefined)
–	–	3.1 µM	49.9%	67.3%	–	–	O=C(O)C(Sc1nc(Cl)cc(Nc2ccc(F)cc2)n1)c1cccc2ccccc12 (centres undefined)
0.94 µM	3.1 µM	0.4 µM	–	–	–	–	O=C(O)C(Sc1nc(Cl)cc(Nc2ccc(Oc3ccccc3)cc2)n1)c1cccc2ccccc12 (centres undefined)
–	–	4.4 µM	49.1%	19%	–	–	O=C(O)C(Sc1nc(Cl)cc(Nc2ccc3ncccc3c2)n1)c1cccc2ccccc12 (centres undefined)
–	5.8 µM	0.26 µM	35.8%	–	–	–	CC(C)c1ccc(Nc2cc(Cl)nc(SC(C(=O)O)c3cccc4ccccc34)n2)cc1 (centres undefined)
1.9 µM	2.9 µM	0.5 µM	–	–	–	–	O=C(O)C(Sc1nc(Cl)cc(Nc2ccc3ccccc3c2)n1)c1cccc2ccccc12 (centres undefined)
1.6 µM	2.3 µM	0.17 µM	–	–	–	–	N#Cc1ccc(-c2ccc(Nc3cc(Cl)nc(SC(C(=O)O)c4cccc5ccccc45)n3)cc2)cc1 (centres undefined)
1.55 µM	1.6 µM	0.24 µM	–	–	–	–	O=C(O)C(Sc1nc(Cl)cc(Nc2ccc3c(c2)Cc2ccccc2-3)n1)c1cccc2ccccc12 (centres undefined)
–	5.2 µM	0.6 µM	38.8%	–	–	–	O=C(Nc1ccc(Nc2cc(Cl)nc(SC(C(=O)O)c3cccc4ccccc34)n2)cc1)c1ccccc1 (centres undefined)
6.1 µM	–	1.8 µM	–	68.9%	–	–	O=C(O)C(Sc1nc(Cl)cc(NCCCc2ccccc2)n1)c1cccc2ccccc12 (centres undefined)
